Laboratory results as given in patent publication EP1803452A1, “ESTER DERIVATIVE AND PHARMACEUTICAL USE THEREOF” (Japan Tobacco, Inc., priority 2004, dated 2006).

How the values were obtained:
[1] = Metabolic stability test in plasma; format: in vitro ADME, human; conditions: LC/MS; for remaining at 10 min: unchanged form after 10 minutes at 37°C in human plasma, read-out: Remaining rate in human plasma (%/10min); for remaining at 1 h: unchanged form after 60 minutes at 37°C in human plasma, read-out: Remaining rate in human plasma (%/60min)
Experimental: A sample dissolved in DMSO was added to plasma of human or animal species (mouse and hamster). The solutions were incubated at 37°C for 0, 10 and 60 minutes, and acetonitrile containing formic acid (final concentration: 0.1%) was added thereto. The solutions were centrifuged, and the concentration of the sample (unchanged form) in the supernatant was determined by high performance liquid chromatography/mass spectrometry (LC/MS). Based on the data obtained, the remaining rate (%) was calculated according to the following equation. Remaining rate(%) = amount of sample 0,10, or 60 minutes after incubation/amount of sample at zero time after incubation × 100 [formula]
(§1) With respect to the compounds obtained in Working Examples according to the present invention (Compounds 1-1 to 1-115, 2-1, 3-1, 3-2, and 4-1 to 4-4), the results of the remaining rate in human liver S9 and plasma are shown in Tables 28 to 32.

[2] = Stability test in buffer (pH 7.4); format: physicochemical; conditions: phosphate buffer/acetonitrile 7:3, 100 mM potassium phosphate buffer (pH 7.4) and acetonitrile 7:3 (v/v), LC/MS; for remaining at 10 min: 10 minutes at 37°C, read-out: Buf. remaining rate (%/10min); for remaining at 1 h: 60 minutes at 37°C, read-out: Buf. remaining rate (%/60min)
Experimental: In the tables, Buf. remaining rate was determined by stability test in buffer (pH 7.4) as described below. A sample dissolved in DMSO was mixed with a mixed solution of 100 mM potassium phosphate buffer and acetonitrile in the ratio of 7:3 (v/v). The mixture was incubated at 37°C for 0, 10, and 60 minutes, and acetonitrile containing formic acid (final concentration: 0.1%) was added thereto. The solution was centrifuged, and the concentration of the sample (unchanged form) in the supernatant was determined by high performance liquid chromatography/mass spectrometry (LC/MS). Based on the data obtained, Buf. remaining rate (%) was calculated according to the following equation. Buf.remaining rate(%) = amount of sample 0,10, or 60 minutes after incubation/amount of sample at zero time after incubation × 100 [formula]

[3] = Metabolic stability test in liver S9; format: in vitro ADME; conditions: pH 7.4, human liver S9 2 mg protein/mL, LC/MS; for remaining at 10 min: unchanged form after 10 minutes at 37°C, read-out: Remaining rate in human liver S9 (%/10min); for remaining at 1 h: unchanged form after 60 minutes at 37°C, read-out: Remaining rate in human liver S9 (%/60min)
Experimental: Human liver S9 (final concentration: 2 mg protein/mL), was suspended in 100 mM potassium phosphate buffer (pH 7.4, containing β-nicotinamide adenine dinucleotide phosphate: 1.3 mM, D-glucose-6- phosphate: 3.3 mM, magnesium chloride: 3.3 mM, glucose-6-phosphate dehydrogenase:0.4 U/mL). The suspension was mixed with a solution of a sample dissolved in DMSO. The solution was incubated at 37°C for 0, 10 and 60 minutes, and an acetonitrile containing formic acid (final concentration: 0.1%) was added thereto. The solutions were centrifuged, and the concentration of the sample (unchanged form) in the supernatant was determined by high performance liquid chromatography/mass spectrometry (LC/MS). Based on the data obtained, remaining rate (%) was calculated according to the following equation. Remaining rate(%) = amount of sample 0,10, or 60 minutes after [formula] incubation/amount of sample at zero time after incubation × 100 [formula]
as §1

| remaining at 10 min [1] [%] | remaining at 1 h [1] [%] | remaining at 10 min [2] [%] | remaining at 1 h [2] [%] | remaining at 10 min [3] [%] | remaining at 1 h [3] [%] | SMILES |
| --- | --- | --- | --- | --- | --- | --- |
| 21 | 0 | 99 | 99 | 0 | 0 | CN(C)C(=O)c1cc(CCCC(=O)Oc2ccc(C#N)cc2)ccc1NC(=O)c1ccccc1-c1ccc(C(F)(F)F)cc1 [Compound 1-23, 4-{3-dimethylcarbamoyl-4-[(4'-trifluoromethylbiphenyl-2-carbonyl)amino]phenyl}butyric acid 4-cyanophenyl ester] |
| 9 | 4 | 95 | 95 | 10 | 6 | CN(C)C(=O)c1cc(CCCC(=O)Oc2ccc(C(=O)OCc3ccccc3)cc2)ccc1NC(=O)c1ccccc1-c1ccc(C(F)(F)F)cc1 [Compound 1-24, 4-(4-{3-dimethylcarbamoyl-4-[(4'-trifluoromethylbiphenyl-2-carbonyl)amino]phenyl}butyryloxy)benzoic acid benzyl ester] |
| 89 | 59 | 99 | 101 | 4 | 0 | CN(C)C(=O)c1cc(CCCC(=O)Oc2ccc(C(=O)O)cc2)ccc1NC(=O)c1ccccc1-c1ccc(C(F)(F)F)cc1 [Compound 1-25, 4-(4-{3-dimethylcarbamoyl-4-[(4'-trifluoromethylbiphenyl-2-carbonyl)amino]phenyl}butyryloxy) benzoic acid] |
| 23 | 0 | 99 | 102 | 0 | 0 | COC(=O)c1ccc(OC(=O)CCCc2ccc(NC(=O)c3ccccc3-c3ccc(C(F)(F)F)cc3)c(C(=O)N3CCOCC3)c2)cc1 [Compound 1-26, 4-(4-{3-(morpholine-4-carbonyl)-4-[(4'-trifluoromethylbiphenyl-2-carbonyl)amino]phenyl}butyryloxy)benzoic acid methyl ester] |
| 10 | 0 | 97 | 102 | 0 | 0 | COC(=O)c1ccc(OC(=O)CCc2ccc(NC(=O)c3ccccc3-c3ccc(C(F)(F)F)cc3)c(C(=O)N(C)C)c2)cc1 [Compound 1-27, 4-(3-{3-dimethylcarbamoyl-4-[(4'-trifluoromethylbiphenyl-2-carbonyl)amino]phenyl}propionyloxy)benzoic acid methyl ester] |
| 0 | 0 | 101 | 102 | 0 | 0 | COC(=O)c1ccc(OC(=O)CCCc2ccc(NC(=O)c3cccnc3-c3ccc(C(F)(F)F)cc3)c(C(=O)N(C)C)c2)cc1 [Compound 1-28, 4-[4-(3-dimethylcarbamoyl-4-{[2-(4-trifluoromethylphenyl)pyridine-3-carbonyl]amino}phenyl)butyryloxy]benzoic acid methyl ester] |
| 41 | 0 | 98 | 98 | 1 | 0 | CC(C)OC(=O)c1ccc(OC(=O)CCCc2ccc(NC(=O)c3ccncc3-c3ccc(C(F)(F)F)cc3)c(C(=O)N(C)C)c2)cc1 [Compound 1-29, 4-[4-(3-dimethylcarbamoyl-4-{[3-(4-trifluoromethylphenyl)pyridine-4-carbonyl]amino}phenyl)butyryloxy]benzoic acid isopropyl ester] |
| 0 | 0 | 99 | 99 | 0 | 0 | COC(=O)c1ccc(OC(=O)CCCc2ccc(NC(=O)c3ccncc3-c3ccc(C(F)(F)F)cc3)c(C(=O)N(C)C)c2)cc1 [Compound 1-30, 4-[4-(3-dimethylcarbamoyl-4-{[3-(4-trifluoromethylphenyl)pyridine-4-carbonyl]amino}phenyl)butyryloxy]benzoic acid methyl ester] |
| 26 | 0 | 101 | 102 | 0 | 0 | CC(C)OC(=O)c1ccc(OC(=O)CCCc2ccc(NC(=O)c3cccnc3-c3ccc(C(F)(F)F)cc3)c(C(=O)N(C)C)c2)cc1 [Compound 1-31, 4-[4-(3-dimethylcarbamoyl-4-{[2-(4-trifluoromethylphenyl)pyridine-3-carbonyl]amino}phenyl)butyryloxy]benzoic acid isopropyl ester] |
| 0 | 0 | 100 | 97 | 0 | 0 | COC(=O)c1ccc(OC(=O)CCCc2ccc(NC(=O)c3ccc(C)nc3-c3ccc(C(F)(F)F)cc3)c(C(=O)N(C)C)c2)cn1 [Compound 1-32, 5-[4-(3-dimethylcarbamoyl-4-{[6-methyl-2-(4-trifluoromethylphenyl)pyridine-3-carbonyl]amino}phenyl)butyryloxy]pyridine-2-carboxylic acid methyl ester] |
| 0 | 0 | 98 | 102 | 0 | 0 | COC(=O)c1ccc(OC(=O)CCCc2ccc(NC(=O)c3ccccc3-c3ccc(C(F)(F)F)cc3)c(C(=O)N(C)C)c2)c(C(=O)OC)c1 [Compound 1-33, 4-(4-{3-dimethylcarbamoyl-4-[(4'-trifluoromethylbiphenyl-2-carbonyl)amino]phenyl}butyryloxy)isophthalic acid dimethyl ester] |
| 52 | 0 | 98 | 103 | 16 | 4 | COC(=O)c1cc(C)c(OC(=O)CCCc2ccc(NC(=O)c3ccccc3-c3ccc(C(F)(F)F)cc3)c(C(=O)N(C)C)c2)c(Cl)c1 [Compound 1-34, 3-chloro-4-(4-{3-dimethylcarbamoyl-4-[(4'-trifluoromethylbiphenyl-2-carbonyl)amino]phenyl}butyryloxy)-5-methylbenzoic acid methyl ester] |
| 43 | 0 | 100 | 105 | 5 | 0 | COC(=O)c1cc(C)c(OC(=O)CCCc2ccc(NC(=O)c3ccc(C)nc3-c3ccc(C(F)(F)F)cc3)c(C(=O)N(C)C)c2)c(Cl)c1 [Compound 1-35, 3-chloro-4-[4-(3-dimethylcarbamoyl-4-{[6-methyl-2-(4-trifluoromethylphenyl)pyridine-3-carbonyl]amino}phenyl)butyryloxy]-5-methylbenzoic acid methyl ester] |
| 0 | 0 | 100 | 103 | 3 | 0 | COC(=O)c1cc(Cl)c(OC(=O)CCCc2ccc(NC(=O)c3ccc(C)nc3-c3ccc(C(F)(F)F)cc3)c(C(=O)N(C)C)c2)c(OC)c1 [Compound 1-36, 3-chloro-4-[4-(3-dimethylcarbamoyl-4-{[6-methyl-2-(4-trifluoromethylphenyl)pyridine-3-carbonyl]amino}phenyl)butyryloxy]-5-methoxybenzoic acid methyl ester] |
